Data reported in US20250388560A1, “AROMATIC COMPOUND AND USE THEREOF” (HITGEN INC., priority 2023, published 2025).

The compounds below were run against TRIM21 protein (Homo sapiens (Human), UniProt P19474) (assay: SPR binding assay (Biacore 8K) of compounds to immobilised TRIM21 protein). Details: 25° C., steady state affinity model (1:1 binding model), read-out: TRIM21 Kd Test Value.
Method: The protein fixation buffer, the running buffer A and the running buffer B were prepared and filtered through a […] membrane prior to use.
A surface of a CM5 chip was washed for three times with 50 mM NaOH at a flow rate of 60.0 μL/min and 60 seconds per wash. […] The CM5 chip was activated for 420 s at a flow rate of 6.0 μL/min. A strep tactin XT fixation buffer fixation built in the twin strep tag capture kit was used to prepare a 50.0 µg/mL Strep tactin XT. The Strep tactin XT was injected at a flow rate of 5.0 μL/min for 600 s. After injection of […], 1 M ethanolamine from the amine coupling kit was injected at a flow rate of 6.0 μL/min for 7 min to close the surface of the CM5 chip.
The running buffer A was used as the protein fixation buffer. The protein fixation buffer and the TRIM21 protein were mixed to prepare a 40.0 µg/mL mixed solution. The 40.0 µg/mL mixed solution was injected at flow rate of 5.0 μL/min for 600 s, and the TRIM21 protein was captured on the CM5 chip through Strep tactin XT.
A compound to be tested was diluted with 100% DMSO to a concentration that was 100 times a required final concentration and mixed evenly, and […] of such solution was added into […] of the running buffer A, followed by centrifugation at 15,000 rpm for 5 min to obtain an X compound solution contained with 1% DMSO.
The X compound was subjected to 8-point, 2-fold serial dilutions with the running buffer B, starting from an initial concentration. The diluted X compound was transferred into the 96-well plate for sample injection.
A Biacore 8K Control software was started, and tests were run in a 25° C. environment. During program running, the running buffer B was used at a flow rate of 30.0 μL/min. The running buffer B was injected for three times to complete balance. […] An injection needle was cleaned with 50% DMSO after each injection.
A response value of binding of the X compound and the TRIM21 protein was corrected after deducting a reference channel and 0 concentration. A binding affinity Kd was matched by a steady state affinity model (1:1 binding model) through the Biacore Insight Evaluation Software.
The binding affinities between X compounds of the embodiments of the present disclosure were tested according the above method.

Sequence of TRIM21 protein (P19474 whole entry, species assumed): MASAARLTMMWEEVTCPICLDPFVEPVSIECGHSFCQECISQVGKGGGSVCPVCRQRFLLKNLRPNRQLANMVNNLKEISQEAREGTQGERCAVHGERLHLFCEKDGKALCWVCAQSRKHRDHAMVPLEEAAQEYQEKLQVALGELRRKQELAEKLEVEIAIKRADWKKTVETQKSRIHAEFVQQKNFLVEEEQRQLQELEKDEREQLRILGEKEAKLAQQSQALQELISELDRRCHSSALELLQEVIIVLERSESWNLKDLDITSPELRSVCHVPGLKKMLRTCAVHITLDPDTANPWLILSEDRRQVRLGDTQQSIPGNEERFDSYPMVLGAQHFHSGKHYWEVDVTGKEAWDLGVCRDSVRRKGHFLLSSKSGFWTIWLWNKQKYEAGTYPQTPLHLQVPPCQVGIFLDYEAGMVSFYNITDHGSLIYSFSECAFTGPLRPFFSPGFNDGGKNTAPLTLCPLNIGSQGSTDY

Row | Kd [µM] | SMILES
1 | 0.1 to 1 | CSc1ccccc1-c1ccc(C(=O)N(C)Cc2ccsc2)c(S(C)(=O)=O)c1 [Compound 4]
2 | 1 to 10 | CSc1ccccc1-c1ccc(C(=O)N(C)CC2CCCCC2(F)F)c(S(C)(=O)=O)c1 (stereo not shown) [Compound 5]
3 | 0.1 to 1 | CCc1ccccc1CN(C)C(=O)c1ccc(-c2ccccc2SC)cc1S(C)(=O)=O [Compound 8]
4 | 1 to 10 | CSc1ccccc1-c1ccc(C(=O)N(C)C2CCCCC2)c(S(C)(=O)=O)c1 [Compound 9]
5 | 1 to 10 | CSc1ccccc1-c1ccc(C(=O)N(C)c2ccccc2)c(S(C)(=O)=O)c1 [Compound 12]
6 | 0.1 to 1 | CSc1ccccc1-c1ccc(C(=O)N(C)CC2CN(C(C)=O)C2)c(S(C)(=O)=O)c1 [Compound 13]
7 | 0.1 to 1 | CSc1ccccc1-c1ccc(C(=O)N(C)[C@H](C)C2CC2)c(S(C)(=O)=O)c1 [Compound 19]
8 | 0.01 to 0.1 | CSc1ccccc1-c1ccc(C(=O)N(C)CC2CCOCC2)c(S(C)(=O)=O)c1 [Compound 23]
9 | 1 to 10 | COc1ccccc1-c1ccc(C(=O)N(C)CC2CCOC2)c(S(C)(=O)=O)c1 (stereo not shown) [Compound 25]
10 | 1 to 10 | COc1ccccc1-c1ccc(C(=O)N(C)CC2COC2)c(S(C)(=O)=O)c1 [Compound 30]
11 | 1 to 10 | COc1ccccc1-c1ccc(C(=O)N(C)[C@H](C)C2CC2)c(S(C)(=O)=O)c1 [Compound 32]
12 | 0.1 to 1 | COc1ccccc1-c1ccc(C(=O)N(C)CC2CCOCC2)c(S(C)(=O)=O)c1 [Compound 34]
13 | 0.1 to 1 | COc1ccccc1-c1ccc(C(=O)N(C)CC2CCCCC2)c(S(C)(=O)=O)c1 [Compound 37]
14 | 0.1 to 1 | Cc1ccccc1-c1ccc(C(=O)N(C)CC2CCCCC2)c(S(C)(=O)=O)c1 [Compound 38]
15 | 0.1 to 1 | CN(CC1CCCCC1)C(=O)c1ccc(-c2ccccc2C(F)(F)F)cc1S(C)(=O)=O [Compound 39]

The next lines start with the compound.

Row | SMILES | Kd [µM]
16 | CNC(=O)c1ccc(-c2ccccc2SC)cc1S(C)(=O)=O [Compound 1] | 0.1 to 1
17 | CSc1ccccc1-c1ccc(C(=O)N(C)CC2CCCCC2)c(S(C)(=O)=O)c1 [Compound 2] | 0.1 to 1
18 | CSc1ccccc1-c1ccc(C(=O)N(C)Cc2ccc3c(c2)OCO3)c(S(C)(=O)=O)c1 [Compound 3] | 0.01 to 0.1
19 | CSc1ccccc1-c1ccc(C(=O)N(C)CC2(F)CCCCC2)c(S(C)(=O)=O)c1 [Compound 6] | 0.1 to 1
20 | CSc1ccccc1-c1ccc(C(=O)N(C)Cc2cnoc2)c(S(C)(=O)=O)c1 [Compound 7] | 0.1 to 1
21 | CCC(CC)CN(C)C(=O)c1ccc(-c2ccccc2SC)cc1S(C)(=O)=O [Compound 10] | 0.1 to 1
22 | CSc1ccccc1-c1ccc(C(=O)N(C)Cc2cc[nH]c2)c(S(C)(=O)=O)c1 [Compound 11] | 0.01 to 0.1
23 | CSc1ccccc1-c1ccc(C(=O)N(C)[C@H](C)C2CCC2)c(S(C)(=O)=O)c1 [Compound 14] | 0.1 to 1
24 | CSc1ccccc1-c1ccc(C(=O)N(C)CC2CCOC2)c(S(C)(=O)=O)c1 (stereo not shown) [Compound 15] | 0.1 to 1
25 | COc1cc(CN(C)C(=O)c2ccc(-c3ccccc3SC)cc2S(C)(=O)=O)ccn1 [Compound 16] | 0.1 to 1
26 | CSc1ccccc1-c1ccc(C(=O)N(C)Cc2cc[nH]c(=O)c2)c(S(C)(=O)=O)c1 [Compound 18] | 1 to 10
27 | CSc1ccccc1-c1ccc(C(=O)N(C)[C@H](C)C2CCCC2)c(S(C)(=O)=O)c1 [Compound 20] | 0.1 to 1
28 | COc1ccccc1-c1ccc(C(=O)N(C)[C@H](C)C2CCC2)c(S(C)(=O)=O)c1 [Compound 24] | 1 to 10
29 | COc1ccccc1-c1ccc(C(=O)N(C)CC2CN(C(C)=O)C2)c(S(C)(=O)=O)c1 [Compound 26] | > 10
30 | COc1cc(CN(C)C(=O)c2ccc(-c3ccccc3OC)cc2S(C)(=O)=O)ccn1 [Compound 27] | 0.01 to 0.1
31 | COc1ccccc1-c1ccc(C(=O)N(C)Cc2cc[nH]c(=O)c2)c(S(C)(=O)=O)c1 [Compound 28] | 0.01 to 0.1
32 | COc1ccccc1-c1ccc(C(=O)N(C)Cc2cc[nH]c2)c(S(C)(=O)=O)c1 [Compound 29] | 0.01 to 0.1
33 | COc1ccccc1-c1ccc(C(=O)N(C)C(C)C2COC2)c(S(C)(=O)=O)c1 (stereo not shown) [Compound 31] | 1 to 10
34 | COc1ccccc1-c1ccc(C(=O)N(C)[C@H](C)C2CCCC2)c(S(C)(=O)=O)c1 [Compound 33] | 1 to 10
35 | COc1ccccc1-c1ccc(C(=O)N(C)CC2CCC(O)CC2)c(S(C)(=O)=O)c1 (stereo not shown) [Compound 35] | 0.1 to 1
36 | CN(CC1CCCCC1)C(=O)c1ccc(-c2ccc(F)cc2C2CC2)cc1S(C)(=O)=O [Compound 41] | 0.01 to 0.1
37 | CN(CC1CCCCC1)C(=O)c1ccc(-c2ccccc2C(C)(C)O)cc1S(C)(=O)=O [Compound 42] | 0.1 to 1
38 | COc1cnccc1-c1ccc(C(=O)N(C)CC2CCCCC2)c(S(C)(=O)=O)c1 [Compound 43] | 1 to 10
39 | CN(CC1CCCCC1)C(=O)c1ccc(-c2ccccc2F)cc1S(C)(=O)=O [Compound 45] | 1 to 10
40 | CC(C)c1ccccc1-c1ccc(C(=O)N(C)CC2CCCCC2)c(S(C)(=O)=O)c1 [Compound 46] | 0.1 to 1
41 | CN(CC1CCCCC1)C(=O)c1ccc(-c2cccc3ccoc23)cc1S(C)(=O)=O [Compound 47] | > 10
42 | COc1cc(F)ccc1-c1ccc(C(=O)N(C)CC2CCCCC2)c(S(C)(=O)=O)c1 [Compound 52] | 0.001 to 0.01
43 | CN(CC1CCCCC1)C(=O)c1ccc(-c2ccc(F)cc2)cc1S(C)(=O)=O [Compound 54] | 1 to 10
